Test results as given in patent US11518742B2 (priority 2020, dated 2022).
Read-outs that look alike come from different tables or passages of the source.

Experiments:
Sprague Dawley rats = assay: 14-day repeat-dose intranasal toxicity study with 14-day recovery in rats (Study 700041); type: in vivo, rat; settings: for Thymus Mean Absolute Weight, percentage compared to the control value: males; for Clinical signs: male and female
Protocol: (§1) The animals were monitored for mortality, clinical signs, respiratory measurements, body weights, food consumption, and body temperature. Ophthalmoscopic examinations and respiratory function tests were performed on all animals at scheduled timepoints. Clinical pathology assessments (hematology, coagulation, clinical chemistry, and urinalysis) were evaluated at termination. […] Following dosing, the Main animals were euthanized and subjected to a complete necropsy examination on Day 15. […] TK animals were euthanized after the last blood collection and discarded without further examination. At terminal euthanasia, selected tissues/organs were weighed, and microscopic evaluations of a standard set of tissues including the nasal turbinates (4 sections) and brain (7 sections) were performed for all Main and Recovery study animals.
(§2) Following dosing, animals in the Main group were euthanized and subjected to a necropsy examination on Day 15. […] For toxicokinetics, a series of 8 blood samples (approximately 0.5 mL each) were collected from all rats in the Toxicokinetic group (3 rats/sex/timepoint) on Days 1 and 14 of the treatment period at 2, 5, 10, 15 and 30 minutes, and 1.0, 3.0 and 8 hours after treatment. For control rats (3 rats/sex) in the Toxicokinetic group only 1 sample was collected at the 15 minutes post dosing timepoint on Days 1 and 14.
(§3) Toxicity was based on the following parameters monitored: mortality/morbidity, clinical observations, body weights/gains, food consumption, ophthalmoscopy, clinical pathology (hematology, coagulation, chemistry, and urinalysis), necropsy observations, selected organ weights, and microscopic examination of a complete set of standard tissues including 4 cross levels of the nasal cavity and 7 sections of the brain.

[1] = as above; type: in vivo, rat; settings: both sexes, Sprague Dawley, in vivo, inhaled or intranasal; 14-day intranasal, rat
Protocol: as §1, §2, §3

[2] = Toxicokinetics, 14-day intranasal study in dogs (Study 62959); type: in vivo; settings: dog, plasma, inhaled or intranasal; for AUC(0-inf): read-out: AUCINF_obs; for half-life: read-out: t1/2 (converted); for AUC(0-t): read-out: AUC0-Tlast
Protocol: Assessments of mortality, clinical signs, olfactory reflex, body weights, food consumption, ophthalmology, and electrocardiograms were performed. In addition, clinical pathology assessments (hematology, coagulation, clinical chemistry and urinalysis) were evaluated once pretreatment and at termination. Blood samples were collected from the jugular vein of all animals on Days 1 and 14, at up to 8 time points relative to treatment, for analysis of test item concentration in plasma and the subsequent calculation of toxicokinetic parameters. Following dosing, the Main animals were euthanized and subjected to a complete necropsy examination on Day 15. […] All Main and Recovery study animals underwent complete necropsy examinations, selected tissues/organs were retained, and microscopic evaluations of a standard set of tissues were performed.
For toxicokinetics, a series of 8 blood samples were collected from the jugular vein from all treated animals on each of Days 1 and 14 of the treatment period at 2, 5, 10, 15, 30, and 60 minutes as well as 3 and 8 hours after treatment.

[3] = female, Beagle, 0.8 mg/kg/day, Day 1, Female
[4] = female, Beagle, 0.8 mg/kg/day, Day 14, Female
[5] = female, beagle, 0.4 mg/kg/day, Day 1, Female
[6] = female, beagle, 0.4 mg/kg/day, Day 14, Female
[7] = female, beagle, […], 2.5 & […], Day 1, Female
[8] = male, Beagle, 0.8 mg/kg/day, Day 1, Male
[9] = male, Beagle, 0.8 mg/kg/day, Day 14, Male
[10] = male, beagle, 0.4 mg/kg/day, Day 1, Male
[11] = male, beagle, 0.4 mg/kg/day, Day 14, Male
[12] = male, beagle, […], 2.5 & […], Day 14, Male

COc1ccc2[nH]cc(CCN(C)C)c2c1 [BPL-5MEO, 5-methoxy-N,N-dimethyltryptamine]
Effect on reproductive tissues (Sprague Dawley rats; 14-day pivotal GLP intranasal toxicity study, rats): no evidence of an adverse effect on reproductive tissues
Respiratory rates (Sprague Dawley rats; 20 minutes post dose): Decreases in respiratory rates
Thymus Mean Absolute Weight, percentage compared to the control value (Sprague Dawley rats; Group 2 (5 mg/kg/day)): −4%
Clinical signs (Sprague Dawley rats; Group 2 (Low Dose) 5 mg/kg/day): incoordination, shaking, salivation, decreased activity, lying on cage floor and sensitive to touch
Thymus Mean Absolute Weight, percentage compared to the control value (Sprague Dawley rats; Group 3 (20 mg/kg/day)): 18%
Clinical signs (Sprague Dawley rats; Group 3 (Mid Dose) 20 mg/kg/day): incoordination, shaking (or tremor), increased or shallow respiration, mydriasis, salivation, decreased activity, partially closed eyes, lying on cage floor and sensitive to touch
Thymus Mean Absolute Weight, percentage compared to the control value (Sprague Dawley rats; Group 4 (75 mg/kg/day)): −31%
Clinical signs (Sprague Dawley rats; Group 4 (High Dose) 75 mg/kg/day): incoordination, shaking (or tremor), increased or shallow respiration, mydriasis, salivation, decreased activity, partially closed eyes, lying on cage floor and sensitive to touch
Microscopic findings, epithelium of nasal cavities 1-4 (Sprague Dawley rats; Main animals, proportional to dose, greater in males): minimal to mild changes
Reversibility of nasal microscopic findings (Sprague Dawley rats; after 14-day recovery period): incomplete but progressive ongoing reversal of epithelial degeneration
Body temperature (Sprague Dawley rats; both sexes): Slight dose dependent body temperature increases
Body weight gain (Sprague Dawley rats; both sexes, Days 1 to 14): Slight dose-dependent body weight gain suppression
Ocular effect (Sprague Dawley rats; dose levels 75 mg/kg/day for 14 days): no adverse ocular effect
Activated partial thromboplastin time (APTT) (Sprague Dawley rats; mid (20 mg/kg/day) and high (75 mg/kg/day) dose groups, both sexes): APTT were increased
Hematology (Sprague Dawley rats; mid and high dose groups, both sexes): Platelet, neutrophil, monocyte and basophil counts were slightly increased
Overall tolerability (Sprague Dawley rats; ≤75 mg/kg/day for 14 consecutive days): tolerated with no BPL-5MEO-related effects on mortality, ophthalmology, clinical chemistry, macroscopic findings and urinalysis
NOAEL at 14 days [1]: 5 mg/kg
AUC ([2]; Beagle, dogs, 1.5 mg/kg/day, combined for both sexes, read-out: AUCINT_obs at the NOAEL): 220 ng·h/mL
Cmax [2, 3]: 328 ng/mL
AUC(0-inf) [2, 3]: 265 ng·h/mL
half-life [2, 3]: 43.8 min
Cmax [2, 4]: 244 ng/mL
AUC(0-t) [2, 4]: 248 ng·h/mL
half-life [2, 4]: 95.4 min
Cmax [2, 5]: 242 ng/mL
AUC(0-t) [2, 5]: 104 ng·h/mL
AUC(0-inf) [2, 5]: 106 ng·h/mL
half-life [2, 5]: 18.7 min
Cmax [2, 6]: 196 ng/mL
AUC(0-t) [2, 6]: 86.4 ng·h/mL
AUC(0-inf) [2, 6]: 95.9 ng·h/mL
half-life [2, 6]: 42.4 min
Tmax [2, 7]: 6.66 min
half-life [2, 7]: 50.9 min
Cmax [2, 8]: 300 ng/mL
Tmax [2, 8]: 6.66 min
AUC(0-t) [2, 8]: 152 ng·h/mL
AUC(0-inf) [2, 8]: 160 ng·h/mL
half-life [2, 8]: 35.7 min
Cmax [2, 9]: 411 ng/mL
Tmax [2, 9]: 6.66 min
AUC(0-t) [2, 9]: 298 ng·h/mL
AUC(0-inf) [2, 9]: 322 ng·h/mL
half-life [2, 9]: 79.2 min
Cmax [2, 10]: 343 ng/mL
AUC(0-t) [2, 10]: 77.9 ng·h/mL
AUC(0-inf) [2, 10]: 80.9 ng·h/mL
half-life [2, 10]: 34.3 min
Cmax [2, 11]: 285 ng/mL
Tmax [2, 11]: 6.66 min
AUC(0-t) [2, 11]: 70.6 ng·h/mL
AUC(0-inf) [2, 11]: 77.7 ng·h/mL
half-life [2, 11]: 25.7 min
Tmax [2, 12]: 13.4 min
half-life [2, 12]: 49 min
